Patent EP1581790B1, “PEPTIDES THAT HOME TO TUMOR LYMPHATIC VASCULATURE AND METHODS OF USING SAME” (The Burnham Institute, priority 2001, dated 2009)
Where no end group is shown, it is not given here.

How the values were obtained:
[1] = tested on: Cultured MDA-MB-435 cells; assay: Cytotoxicity in cell culture, trypan blue staining; format: cell-based
Protocol: Cultured MDA-MB-435 cells were incubated with a control peptide (CGEKRTRGC; SEQ ID NO: 3) or with CGNKRTRGC (SEQ ID NO: 1) at 37°C for 1, 2 or 4 hours. After staining with trypan blue, which is taken up by cells that are dead or dying, the total number of cells were counted, and the percentage of trypan blue stained cells determined. […] In particular, after four hours incubation, at least 7-fold greater trypan blue uptake was evident in cell cultures incubated with peptide SEQ ID NO: 1 as compared to cultures incubated with control peptide.

[2] = tested on: MDA-MB-435 human breast carcinoma cell xenografts; assay: Tumor treatment study; format: in vivo, nude mice; settings: 67 nmol intravenously twice a week; after about two weeks of treatment; Figure 8
Protocol: A tumor treatment study was performed using MDA-MB-435 human breast carcinoma cell xenografts prepared by subcutaneously injecting 1 x 10^6 cells in 200 µl PBS into nude mice. Mice (five per group) were treated intravenously twice a week with 67 nmol CGNKRTRGC peptide (SEQ ID NO: 1) or with PBS starting four weeks after tumor implantation. Tumor volumes were measured once a week for four weeks.

[3] = tested on: primary MDA-MB-435 breast carcinoma tumor cell suspensions; assay: Ex vivo binding of phage to primary 435 tumor cell suspensions; parameters: species or system Human; settings: addition of synthetic peptide
Protocol: Several ex vivo selections were performed with 435 tumor cell suspensions prepared from MDA-MB-435 breast carcinoma xenografts grown in nude mice, as described below. Anti-mouse CD31 was used to deplete the tumor cell mixture of blood vessel endothelial cells prior to rescuing phage bound to the CD31-negative cell population. By the third ex vivo round, the phage pool bound a tumor cell suspension approximately 350-fold over control, nonrecombinant phage. The ex vivo preselected phage pool then was subjected to an in vivo selection round by injection into the tail vein of a nude mouse bearing an MDA-MB-435 tumor. Phage were then rescued from harvested xenograft tumor tissue.
Xenografts, tumor cell suspensions and ex vivo selections were performed essentially as follows. Nude Balb/c mice were subcutaneously injected with 1 x 10^6 MDA-MB-435 tumor cells to generate breast carcinoma xenografts. Human MDA-MB-435 breast carcinoma xenograft tumors were harvested 9 to 12 weeks after implantation, and tumor cell suspensions prepared using collagenase (0.5 mg/ml, Sigma).
The suspension was subjected to serial washes with 1% BSA in DME to remove unbound phage. […]

[4] = tested on: MDA-MB-435 tumor lymphatic vasculature; assay: Localization in 435 tumors after intravenous injection, with blood vessel and lymphatic markers
normal tissues = assay: Localization of fluorescein-labeled peptide in normal tissues after intravenous injection; format: in vivo, mice
Protocol: Several normal tissues also were studied for localization of the CGNKRTRGC (SEQ ID NO: 1) peptide.
Detection of fluorescent peptides and biotin-conjugated tomato lectin was performed as follows. Fluorescein-conjugated peptide CGNKRTRGC (SEQ ID NO: 1) was prepared as described above. The peptide (100 µg in 200 µl of PBS) was injected into the tail vein of mice bearing MDA-MB-435 breast carcinoma tumors. After 10 minutes, biotin-conjugated lycopersicon esculentum (tomato) lectin (100 µg in 200 µl of PBS; Vector; Burlingame, California) was also injected into the tail vein. After 5 minutes, the mouse was perfused through the heart with 4% paraformaldehyde. Tissues were removed and frozen in O.C.T. embedding medium (Tissue-Tek; Torrence, California). Blood vessels were visualized by detecting the tomato lectin with streptavidin-conjugated Alexa 594 (Molecular Probes; Eugene, Oregon). Green staining indicated the presence of peptide SEQ ID NO: 1, while red staining indicated the presence of tomato lectin.

[5] = concentration of 10 µM; cited from earlier work
cultured KRIB cells = assay: Internalization of fluorescein-labeled peptide by cultured KRIB cells; format: cell-based, human
[6] = tested on: cultured MDA-MB-435 tumor cells; assay: Internalization and subcellular localization in cultured MDA-MB-435 cells; format: cell-based, Human; settings: one to five hours at 37°C; Figure 2
Protocol: A fluorescein-conjugated CGNKRTRGC (SEQ ID NO: 1) peptide was utilized to further analyze cellular internalization and subcellular localization. […] Natl. Acad. Sci. 97:13003 (2000). The fluorescein-conjugated peptides were incubated with cultured MDA-MB-435 tumor cells for one to five hours at 37°C. […] Cultured 435 cells also internalized the CGNKRTRGC (SEQ ID NO: 1) phage, although the phage accumulated in the cytoplasm of the cells.

Substance: CGNKRTRGC [CGNKRTRGC (SEQ ID NO: 1)]
- trypan blue uptake relative to cultures incubated with control peptide ([1]; four hours incubation, 37°C, control peptide SEQ ID NO: 3): at least 7 fold
- cytotoxic effect as compared to control peptide SEQ ID NO: 3 ([1]; later time points (1, 2 or 4 hours), Figure 7): significantly enhanced cytotoxic effect
- mean tumor volume compared to mice administered PBS alone [2]: at least several fold less
- inhibition of binding of phage displaying the same peptide sequence [3]: inhibited binding
- accumulation in single cells within the tumor ([4]; fluorescein-labeled peptide): accumulated in VEGFR-3 positive single cells within the tumor
- co-localization with the macrophage marker F4/80 ([4]; mouse, in vivo): lack of co-localization
- fluorescence in normal tissues (normal tissues): seen only in the kidney tubuli

Substance: D(KLAKLAK)2
- mitochondrial swelling [5]: marked mitochondrial swelling

Substance: fluorescein-conjugated CGNKRTRGC (SEQ ID NO: 1) peptide: Fluorescein-conjugated CGNKRTRGC (SEQ ID NO: 1) peptide (cysteine pairing not given here; also: fluorescein-conjugated)
- internalization by cultured KRIB cells (cultured KRIB cells): internalized
- uptake and subcellular localization of fluorescein-conjugated peptide [6]: taken up by the 435 cells and translocated into the cell nucleus
- internalization and nuclear localization in vivo ([4]; Figure 5): internalized and transported into nuclei in vivo
- internalization and nuclear localization in vivo ([4]; Figure 5, listed as fluorescein-conjugated peptide (SEQ ID NO: 1)): accumulated in the nuclei lining the vessel-like structures
- co-localization with blood vessels labeled with biotin-conjugated tomato lectin ([4]; Figures 3A-C): notable lack of co-localization
- co-localization with lymphatic markers VEGFR-3 and LYVE-1 ([4]; intravenously injected, Figure 5): co-localized with VEGFR-3 and LYVE-1 staining in 435 tumor tissue
- blood vessel markers CD31 and Meca-32 on the vessels in which the substance localized ([4]; tail vein injection): negative for the CD31 and Meca-32 blood vessel markers
- localization within 435 tumor ([4]; tail vein injection): localized in vessel-like structures and in individual cells within the tumor
